Our source for the IC50 values is patent US20240279236A1, “COMPOUNDS AND METHODS OF TREATING TUBERCULOSIS” (Fimbrion Therapeutics, Inc., priority 2021, published 2024).

In this test the test system is WT Mtb Erdman strain. The experiment in a line: Microplate Alamar Blue Assay (MABA), Mtb growth inhibition. In kind it is cell-based, Mycobacterium tuberculosis. Conditions: Mycobacterium tuberculosis, ERDMAN, 168 h, Middlebrook 7H9 media, 7 days at 37° C. in 5% CO2. Background: Alamar Blue is a resazurin reagent that responds to reducing activity.

By IC50 is commonly meant the midpoint of a concentration-inhibition curve. Higher therefore signals a need for much substance. `COc1cnc(-c2ccc(CCCNc3nc(-c4ccoc4)nc4sc(C)cc34)cc2)cn1` [Example 380, 2-(furan-3-yl)-N-(3-[4-(5-methoxypyrazin-2-yl)phenyl]propyl)-6-methylthieno[2,3-d]pyrimidin-4-amine] came in with an IC50 of 17 nM.

The molecule `Cc1cc2c(NCCCc3ccc(-c4cnc(N(C)C)cn4)cc3)nc(-c3ccoc3)nc2s1` [Example 381, 5-[4-(3-([2-(furan-3-yl)-6-methylthieno[2,3-d]pyrimidin-4-yl]amino)propyl)phenyl]-N,N-dimethyl-pyrazin-2-amine] gave a 50% inhibitory concentration (IC50) of 39 nM.

The molecule `Cc1cc2c(NCCCc3ccc(-c4ccc(F)cn4)cc3)nc(-c3ccoc3)nc2s1` [Example 382, N-(3-[4-(5-fluoropyridin-2-yl)phenyl]propyl)-2-(furan-3-yl)-6-methylthieno[2,3-d]pyrimidin-4-amine] came in with an IC50 of 8 nM.

Take `Cc1cc2c(NCCCc3ccc(-c4cncc(C(F)(F)F)n4)cc3)nc(-c3ccoc3)nc2s1` [Example 383, 2-(furan-3-yl)-6-methyl-N-(3-(4-[6-(trifluoromethyl)pyrazin-2-yl]phenyl)propyl) thieno[2,3-d]pyrimidin-4-amine]: the IC50 is 230 nM.

Consider `Cc1cc2c(NCCCc3ccc(-c4ccc(F)nc4)cc3)nc(-c3ccoc3)nc2s1` [Example 384, N-(3-[4-(6-fluoropyridin-3-yl)phenyl]propyl)-2-(furan-3-yl)-6-methylthieno[2,3-d]pyrimidin-4-amine], for which the IC50 worked out at 6 nM.

As to `Cc1cc2c(NCCCc3ccc(-c4ccnc(C(F)(F)F)n4)cc3)nc(-c3ccoc3)nc2s1` [Example 385, 2-(furan-3-yl)-6-methyl-N-(3-(4-[2-(trifluoromethyl)pyrimidin-4-yl]phenyl)propyl) thieno[2,3-d]pyrimidin-4-amine], it took 200 nM to reach half-maximal inhibition (IC50).

Regarding `Cc1cc2c(NCCCc3ccc(-c4cnc(C(F)(F)F)nc4)cc3)nc(-c3ccoc3)nc2s1` [Example 386], the IC50 came to 220 nM.

As to `Cc1cc2c(NCCCc3ccc(-c4ccc(C(F)(F)F)cn4)cc3)nc(-c3ccoc3)nc2s1` [Example 387, 2-(furan-3-yl)-6-methyl-N-(3-(4-[5-(trifluoromethyl)pyridin-2-yl]phenyl)propyl) thieno[2,3-d]pyrimidin-4-amine], the midpoint of inhibition, the IC50, lay at 5 nM.

Consider `Cc1cc2c(NCCCc3ccc(-c4ccc(OC(F)(F)F)cn4)cc3)nc(-c3ccoc3)nc2s1` [Example 388, 2-(furan-3-yl)-6-methyl-N-(3-(4-[5-(trifluoro-methoxy)pyridin-2-yl]phenyl)propyl)thieno[2,3-d]pyrimidin-4-amine], for which half-maximal inhibition (IC50) was put at 7 nM.

Consider `Cc1cc2c(NCCCc3ccc(-c4ccc(C(F)(F)F)nn4)cc3)nc(-c3ccoc3)nc2s1` [Example 389, 2-(furan-3-yl)-6-methyl-N-(3-(4-[6-(trifluoro-methyl)pyridazin-3-yl]phenyl)propyl)thieno[2,3-d]pyrimidin-4-amine], for which the 50% inhibitory concentration (IC50) was 32 nM.

Regarding `Cc1cc2c(NCCCc3ccc(-c4ccnc(O)c4)cc3)nc(-c3ccoc3)nc2s1` [Example 390, 4-[4-(3-([2-(furan-3-yl)-6-methylthieno[2,3-d]pyrimidin-4-yl]amino)propyl)phenyl]pyridin-2-ol], the IC50 was 9300 nM.

The molecule `Cc1cc2c(NCCCc3ccc(-c4cnccn4)cc3)nc(-c3ccoc3)nc2s1` [Example 391, 2-(furan-3-yl)-6-methyl-N-(3-[4-(pyrazin-2-yl)phenyl]propyl) thieno[2,3-d]pyrimidin-4-amine] came in with an IC50 of 62 nM.

The molecule `Cc1cc2c(NCCCc3ccc(-c4cnc(OC(C)C)cn4)cc3)nc(-c3ccoc3)nc2s1` [Example 392, 2-(furan-3-yl)-6-methyl-N-(3-(4-[5-(propan-2-yloxy)pyrazin-2-yl]phenyl)propyl)thieno[2,3-d]pyrimidin-4-amine] had an IC50 of 44 nM.

Regarding `Cc1cnc(-c2ccc(CCCNc3nc(-c4ccoc4)nc4sc(C)cc34)cc2)cn1` [Example 393, 2-(furan-3-yl)-6-methyl-N-(3-[4-(5-methyl-pyrazin-2-yl)phenyl]propyl) thieno[2,3-d] pyrimidin-4-amine], it took 16 nM to reach half-maximal inhibition (IC50).

On to `Cc1cc2c(NCCCc3ccc(-c4ncc(C(F)(F)F)cn4)cc3)nc(-c3ccoc3)nc2s1` [Example 394, 2-(furan-3-yl)-6-methyl-N-(3-(4-[5-(trifluoromethyl)pyrimidin-2-yl]phenyl)propyl) thieno[2,3-d] pyrimidin-4-amine], for which the IC50 was below 4 nM.

`Cc1cc2c(NCCCc3ccc(-c4cnc(Cl)cn4)cc3)nc(-c3ccoc3)nc2s1` [Example 395, N-(3-[4-(5-chloropyrazin-2-yl)phenyl]propyl)-2-(furan-3-yl)-6-methylthieno[2,3-d]pyrimidin-4-amine] yielded an IC50 of 5 nM.

For the molecule `Cc1cc2c(NCCCc3ccc(-c4cnc(C#N)cn4)cc3)nc(-c3ccoc3)nc2s1` [Example 396, 5-[4-(3-([2-(furan-3-yl)-6-methylthieno[2,3-d]pyrimidin-4-yl]amino)propyl)phenyl]pyrazine-2-carbonitrile], the IC50 is below 5 nM.

`Cc1cc2c(NCCCc3ccc(-c4cnc5[nH]ccc5n4)cc3)nc(-c3ccoc3)nc2s1` [Example 397, 2-(furan-3-yl)-6-methyl-N-[3-(4-(5H-pyrrolo[2,3-b]pyrazin-2-yl)phenyl)propyl] thieno[2,3-d] pyrimidin-4-amine]: the IC50 was 5000 nM.

In turn, `Cc1cc2c(NCCCc3ccc(-c4ccc(S(C)(=O)=O)cn4)cc3)nc(-c3ccoc3)nc2s1` [Example 398, 2-(furan-3-yl)-N-(3-[4-(5-methanesulfonyl-pyridin-2-yl)phenyl]propyl)-6-methylthieno [2,3-d]pyrimidin-4-amine] gave an IC50 above 460 nM.

Take `CSc1cnc(-c2ccc(CCCNc3nc(-c4ccoc4)nc4sc(C)cc34)cc2)cn1` [Example 399, 2-(furan-3-yl)-6-methyl-N-(3-(4-[5-(methylsulfanyl)pyrazin-2-yl]phenyl)propyl) thieno[2,3-d] pyrimidin-4-amine]: the IC50 is above 270 nM.

As for `Cc1cc2c(NCCCc3ccc(-c4ccc(N(C)C)nn4)cc3)nc(-c3ccoc3)nc2s1` [Example 400, 6-[4-(3-([2-(furan-3-yl)-6-methylthieno [2,3-d]pyrimidin-4-yl]amino)propyl)phenyl]-N,N-dimethylpyridazin-3-amine], the IC50 was above 500 nM.

Regarding `Cc1cc2c(NCCCc3ccc(-c4cnc(C(=O)N(C)C)cn4)cc3)nc(-c3ccoc3)nc2s1` [Example 401, 5-[4-(3-([2-(furan-3-yl)-6-methylthieno[2,3-d]pyrimidin-4-yl]amino)propyl)phenyl]-N,N-dimethylpyrazine-2-carboxamide], the IC50 is 2200 nM.

`Cc1cc2c(NCCCc3ccc(-c4ncc(F)cn4)cc3)nc(-c3ccoc3)nc2s1` [Example 402, N-(3-[4-(5-fluoropyrimidin-2-yl)phenyl]propyl)-2-(furan-3-yl)-6-methylthieno[2,3-d]pyrimidin-4-amine] yielded an IC50 of 8 nM.

As to `Cc1cc2c(NCCCc3ccc(-c4cnc(CO)cn4)cc3)nc(-c3ccoc3)nc2s1` [Example 403, (5-[4-(3-([2-(furan-3-yl)-6-methylthieno[2,3-d]pyrimidin-4-yl]amino)propyl)phenyl]pyrazin-2-yl)methanol], the IC50 is 70 nM.

Take `CCc1nc(NCCCc2ccc(N3CCOCC3)cc2)c2cc(C)sc2n1` [Example 420, 2-ethyl-6-methyl-N-(3-(4-morpholinophenyl)propyl)thieno[2,3-d]pyrimidin-4-amine]: the IC50 came to 160 nM.

In the case of `CCc1nc(NCCCc2ccc(N3CCCCC3)cc2)c2cc(C)sc2n1` [Example 421, 2-ethyl-6-methyl-N-(3-(4-(piperidin-1-yl)phenyl)propyl) thieno[2,3-d]pyrimidin-4-amine], the half-maximal inhibitory concentration (IC50) was 170 nM.

The molecule `Cc1cc2c(NCCCc3ccc(N4CCOCC4)cc3)nc(C(F)(F)F)nc2s1` [Example 422, 6-methyl-N-(3-(4-morpholinophenyl)propyl)-2-(trifluoromethyl) thieno[2,3-d]pyrimidin-4-amine] displayed an IC50 of 2100 nM.

With `CSc1nc(NCCCc2ccc(-c3cnc(F)cn3)cc2)c2nc(C)sc2n1` [Example 424, N-(3-[4-(5-fluoropyrazin-2-yl)phenyl]propyl)-2-methyl-5-(methylsulfanyl)-[1,3]thiazolo[5,4-d]pyrimidin-7-amine], the midpoint of inhibition, the IC50, lay at 41 nM.

`CSc1nc(NCCCc2ccc(-c3ccc(Cl)cc3)cc2)c2cc(C)sc2n1` [Example 425, N-(3-(4′-chloro-[1,1′-biphenyl]-4-yl)propyl)-6-methyl-2-(methylthio)thieno[2,3-d]pyrimidin-4-amine] gave an IC50 of 17 nM.

For the molecule `Cc1cc2c(NCCCc3ccc(-c4ccc(OC(F)(F)F)cc4)cc3)nc(-c3ccncn3)nc2s1` [Example 426, 6-methyl-2-(pyrimidin-4-yl)-N-(3-(4′-(trifluoromethoxy)-[1,1′-biphenyl]-4-yl)propyl)thieno[2,3-d]pyrimidin-4-amine], half-maximal inhibition (IC50) was put at 76 nM.

The molecule `Cc1cc2c(NCCCc3ccc(-c4ccc(C#N)cc4)cc3)nc(-c3ccoc3)nc2s1` [Example 427, 4′-(3-((2-(furan-3-yl)-6-methylthieno[2,3-d]pyrimidin-4-yl)amino)propyl)-[1,1′-biphenyl]-4-carbonitrile] displayed an IC50 of 16 nM.

`Cc1cc2c(NCCCc3ccc(-c4ccc(C(F)(F)F)nc4)cc3)nc(-c3ccoc3)nc2s1` [Example 428, 2-(furan-3-yl)-6-methyl-N-(3-(4-(6-(trifluoromethyl)pyridin-3-yl)phenyl)propyl)thieno[2,3-d]pyrimidin-4-amine] registered an IC50 of 20 nM.

Molecule `Cc1cc2c(NCCCc3ccc(-c4ccc(C5CC5)cc4)cc3)nc(-c3ccoc3)nc2s1` [Example 429, N-(3-(4′-cyclopropyl-[1,1′-biphenyl]-4-yl)propyl)-2-(furan-3-yl)-6-methylthieno[2,3-d]pyrimidin-4-amine] returned an IC50 of 20 nM.

For `CSc1nc(NCCCc2ccc(-c3ccc(C4CC4)cc3)cc2)c2cc(C)sc2n1` [Example 430, N-(3-(4′-cyclopropyl-[1,1′-biphenyl]-4-yl)propyl)-6-methyl-2-(methylthio)thieno[2,3-d]pyrimidin-4-amine], half-maximal inhibition (IC50) was put at 18 nM.
